Legend:
HeLa-APL = assay: Inhibition of cells growth by colorimetric assay (SRB); details: Homo sapiens, 48 h; for GI50: read-out: HELA-APL GI50; for CC50: read-out: HELA-APL LC50
How it was run: (§1)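 Colorimetric SRB read (490 nm) on triplicate wells after 48 h at 37 °C, 5% CO2. Dose range 10 to 10^−8 μg/ml; 5×10^3 cells/well pre-attached 18 h.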

DU-145 = assay: as above; details: Homo sapiens, DU-145, 48 h; for GI50: read-out: DU145 GI50; for CC50: read-out: DU145 LC50; for IC (TGI): read-out: DU145 TGI
How it was run: as §1

SK-MEL-28 = assay: as above; details: Homo sapiens, SK-MEL-28, 48 h; for GI50: read-out: MEL-28 GI50; for CC50: read-out: MEL-28 LC50; for IC (TGI): read-out: MEL-28 TGI
How it was run: as §1

IGROV-1 = assay: as above; details: Homo sapiens, IGROV-1, 48 h; for GI50: read-out: IGROV GI50; for CC50: read-out: IGROV LC50; for IC (TGI): read-out: IGROV TGI
How it was run: as §1

LNCaP = assay: as above; details: Homo sapiens, LNCaP, 48 h; for GI50: read-out: LNCAP GI50; for CC50: read-out: LNCAP LC50; for IC (TGI): read-out: LNCAP TGI
How it was run: as §1

IGROV-ET = assay: as above; details: Homo sapiens, 48 h; for GI50: read-out: IGROV-ET GI50; for CC50: read-out: IGROV-ET LC50; for IC (TGI): read-out: IGROV-ET TGI
How it was run: as §1

PANC-1 = assay: as above; details: Homo sapiens, PANC-1, 48 h; for GI50: read-out: PANC-1 GI50; for CC50: read-out: PANC-1 LC50; for IC (TGI): read-out: PANC-1 TGI
How it was run: as §1

LoVo-Dox = assay: as above; details: Homo sapiens, 48 h; for GI50: read-out: LOVO-DOX GI50; for CC50: read-out: LOVO-DOX LC50; for IC (TGI): read-out: LOVO-DOX TGI
How it was run: as §1

K-562 = assay: as above; details: Homo sapiens, K562, 48 h; for GI50: read-out: K562 GI50; for CC50: read-out: K562 LC50; for IC (TGI): read-out: K562 TGI
How it was run: as §1

SK-BR-3 = assay: as above; details: Homo sapiens, SK-BR-3, 48 h; for GI50: read-out: SK-BR3 GI50; for CC50: read-out: SK-BR3 LC50; for IC (TGI): read-out: SK-BR3 TGI
How it was run: as §1

HeLa = assay: as above; details: Homo sapiens, HeLa, 48 h; for GI50: read-out: HELA GI50; for CC50: read-out: HELA LC50; for IC (TGI): read-out: HELA TGI
How it was run: as §1

LoVo = assay: cells; details: Homo sapiens, LoVo, 48 h; for GI50: read-out: LOVO GI50; for CC50: read-out: LOVO LC50; for IC (TGI): read-out: LOVO TGI
How it was run: as §1

A-549 = assay: cells; details: Homo sapiens, A549, 48 h; for GI50: read-out: A549 GI50; for CC50: read-out: A549 LC50; for IC (TGI): read-out: A549 TGI
How it was run: as §1

HT-29 = assay: cells; details: Homo sapiens, HT-29, 48 h; for GI50: read-out: HT29 GI50; for CC50: read-out: HT29 LC50; for IC (TGI): read-out: HT29 TGI
How it was run: as §1

In the case of C=CCN1[C@@H]2c3c(cc(C)c(OC)c3O)C[C@H]1[C@H](C#N)N1C2[C@@H]2SC[C@]3(NCCc4cc(OC(=O)OC(C)(C)C)c(OC)cc43)C(=O)OC[C@H]1c1c3c(c(C)c(O)c12)OCO3 (some centres unmarked) [compound 46], the GI50 (HeLa-APL) is reported as 0.0277 µM, the CC50 (HeLa-APL) is reported as 0.0978 µM and the IC (TGI) (HeLa-APL; read-out: HELA-APL TGI) is reported as 0.052 µM. The GI50 (DU-145) was 0.0234 µM, the CC50 (DU-145) was 0.105 µM and the IC (TGI) (DU-145) was 0.0496 µM. It also gave a GI50 (SK-MEL-28) of 0.0296 µM, a CC50 (SK-MEL-28) of 0.107 µM and an IC (TGI) (SK-MEL-28) of 0.0564 µM. It also gave a GI50 (IGROV-1) of 0.0299 µM, a CC50 (IGROV-1) of 11.7 µM and an IC (TGI) (IGROV-1) of 0.0724 µM. The GI50 (LNCaP) was 0.0147 µM, the CC50 (LNCaP) was 0.0592 µM and the IC (TGI) (LNCaP) was 0.0296 µM. For the same compound, the GI50 (IGROV-ET) was 0.285 µM, the CC50 (IGROV-ET) was 11.7 µM and the IC (TGI) (IGROV-ET) was 1.35 µM. The GI50 (PANC-1) was 0.0619 µM, the CC50 (PANC-1) was 11.7 µM and the IC (TGI) (PANC-1) was 0.398 µM. The GI50 (LoVo-Dox) was 0.426 µM, the CC50 (LoVo-Dox) was 11.7 µM and the IC (TGI) (LoVo-Dox) was 1.35 µM. The GI50 (K-562) was 0.023 µM, the CC50 (K-562) was 4.25 µM and the IC (TGI) (K-562) was 0.0648 µM. It also gave a GI50 (SK-BR-3) of 0.0186 µM, a CC50 (SK-BR-3) of 0.247 µM and an IC (TGI) (SK-BR-3) of 0.0532 µM. The GI50 (HeLa) was 0.0264 µM, the CC50 (HeLa) was 0.0974 µM and the IC (TGI) (HeLa) was 0.0501 µM. The GI50 (LoVo) was 0.0553 µM, the CC50 (LoVo) was 11.7 µM and the IC (TGI) (LoVo) was 0.304 µM. The GI50 (A-549) was 0.0289 µM, the CC50 (A-549) was 2.77 µM and the IC (TGI) (A-549) was 0.0618 µM. The GI50 (HT-29) was 0.0429 µM, the CC50 (HT-29) was 11.7 µM and the IC (TGI) (HT-29) was 0.117 µM.
In the case of C=CCN1[C@@H]2c3c(cc(C)c(OC)c3O)C[C@H]1[C@H](C#N)N1C2[C@@H]2SC[C@]3(NCCc4cc(OC(=O)OC(C)(C)C)c(OC)cc43)C(=O)OC[C@H]1c1c3c(c(C)c(OC(=O)/C=C/c4ccccc4)c12)OCO3 (some centres unmarked) [compound 47], the GI50 (HeLa-APL) is reported as 3.74 µM, the CC50 (HeLa-APL) is reported as 10.2 µM and the GI50 (DU-145) is reported as 4.12 µM. For the same compound, the CC50 (DU-145) was 10.2 µM, the IC (TGI) (DU-145) was 10.2 µM and the GI50 (SK-MEL-28) was 8.7 µM. For the same compound, the CC50 (SK-MEL-28) was 10.2 µM, the IC (TGI) (SK-MEL-28) was 10.2 µM and the GI50 (IGROV-1) was 4.22 µM. The CC50 (IGROV-1) was 10.2 µM, the IC (TGI) (IGROV-1) was 10.2 µM and the GI50 (LNCaP) was 0.449 µM. It also gave a CC50 (LNCaP) of 10.2 µM, an IC (TGI) (LNCaP) of 2.92 µM and a GI50 (IGROV-ET) of 4.92 µM. It also gave a CC50 (IGROV-ET) of 10.2 µM, an IC (TGI) (IGROV-ET) of 10.2 µM and a GI50 (PANC-1) of 10.2 µM. For the same compound, the CC50 (PANC-1) was 10.2 µM, the IC (TGI) (PANC-1) was 10.2 µM and the GI50 (LoVo-Dox) was 10.2 µM. For the same compound, the CC50 (LoVo-Dox) was 10.2 µM, the IC (TGI) (LoVo-Dox) was 10.2 µM and the GI50 (K-562) was 0.173 µM. The CC50 (K-562) was 10.2 µM, the IC (TGI) (K-562) was 2.32 µM and the GI50 (SK-BR-3) was 0.301 µM. It also gave a CC50 (SK-BR-3) of 10.2 µM, an IC (TGI) (SK-BR-3) of 1.37 µM and a GI50 (HeLa) of 4.1 µM. For the same compound, the CC50 (HeLa) was 10.2 µM, the IC (TGI) (HeLa) was 10.2 µM and the GI50 (LoVo) was 9.16 µM. It also gave a CC50 (LoVo) of 10.2 µM, an IC (TGI) (LoVo) of 10.2 µM and a GI50 (A-549) of 10.2 µM. It also gave a CC50 (A-549) of 10.2 µM, an IC (TGI) (A-549) of 10.2 µM and a GI50 (HT-29) of 10.2 µM. It also gave a CC50 (HT-29) of 10.2 µM and an IC (TGI) (HT-29) of 10.2 µM.
